This passage reports percent span inhibition and EC50 results from PubChem BioAssay AID1324 (NMMLSC, 2008).

For the experiment, the target named is glutathione S-transferase (GST-GSH binding). Nature of the experiment: GST–glutathione interaction disruption – biochemical, multiplex beads, flow cytometry, HPSMTB buffer, profiling panel (AID 1324).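 On all read-outs here: glutathione beads loaded with GST-green fluorescent protein and no fluorescent Bim peptide.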 The note with it: multiplex bead flow cytometry, MCF; for percent span inhibition: active compounds read high, concentration not given here.

Calls of active or inactive are those of the source. How the calls were made is not given here.

As to `COc1ccc(NC(=O)c2cc(-c3ccc(C)o3)nc3ccccc23)cc1OC`, the percent span inhibition entry was “inactive”. Still for that read-out and setting: the value for `O=C(NC1=C(NC2CCS(=O)(=O)C2)C(=O)c2ccccc2C1=O)c1ccccc1` (stereo not drawn) was “inactive”; that for `COc1ccccc1-n1c(-c2cc(-c3ccc(F)cc3)n[nH]2)n[nH]c1=S` was “inactive”; that for `NC(=O)CSc1nnc(Cn2cnc3ccccc32)o1` was “inactive”. Consider `COc1ccc(OC)c(NC(=O)COC(=O)c2cc3c(s2)CCC3)c1`, for which the percent span inhibition entry is “inactive”. Same read-out and setting: for `COc1ccccc1NC1=C(NC(C)=O)C(=O)c2ccccc2C1=O` the value was “inactive”. Same read-out and setting: for `COCCN=c1scc(-c2ccco2)n1/N=C/c1ccc(O)c(O)c1O` the value was “inactive”; for `CCOc1ccccc1-n1c(=O)c2ccccc2c2ccccc2c1=O`, “inactive”.

For the compound `CCOC(=O)c1c2c3c(c(Cl)ccc3[nH]c1=O)C(=O)c1ccccc1-2`, the EC50 is 5.4 µM. Consider `Clc1ccc2c(N/N=C/c3cccc(Br)c3)ccnc2c1`, for which the percent span inhibition result is “inactive”. Consider `NNC(=O)COc1ccccc1F`, for which the percent span inhibition result is “inactive”.

Regarding `Cc1cc(C)c[n+](-c2nc3ccccc3nc2C(=C=[N-])C#N)c1`, the percent span inhibition result was “inactive”. The same measure, in the same setting: for `O=C(CCCN1C(=O)c2cccc3cccc(c23)C1=O)N1CCN(c2ccccn2)CC1` the value was “inactive”.

Take `CN(Cc1cccs1)C(=O)CCc1c[nH]c2ccccc12`: the percent span inhibition result is “inactive”.

Consider `CCOC(=O)c1nc(Nc2ccc(N3CCC(C)CC3)cc2)c2ccccc2n1`, for which the percent span inhibition result is “inactive”. For `CCN(CC)C(=O)COC(=O)c1cc(-c2ccco2)nc2ccccc12`, the percent span inhibition entry is “inactive”.

With `Cc1ccc(/C=C/C(=O)c2ccccc(=O)c2O)c(C)c1`, the percent span inhibition result was “inactive”. The same measure, in the same setting: for `Nc1ccc(C2=Nc3cccc4cccc(c34)N2)cc1` the value was “inactive”; for `CCOc1cc(NC(=S)NC)c(OCC)cc1NC(=O)c1ccc(OC)cc1`, “inactive”; for `COC(=O)/C(=C/c1ccc(F)cc1)NC(C)=O`, “inactive”. On the same count and under the same terms, the value for `O=C(Nc1ccc2nc(-c3ccco3)c(-c3ccco3)nc2c1)N1CCN(c2ccccn2)CC1` was “inactive”; that for `CNC(=S)N(Cc1cccs1)Cc1cc2ccc(OC)cc2[nH]c1=O` was “inactive”; that for `CNC(CC(=O)c1ccc([N+](=O)[O-])cc1)C(Cl)(Cl)Cl` (stereo not drawn) was “inactive”. On the same count and under the same terms, for `COc1ccc(C2CC(=O)C3=C(C2)Nc2ccccc2NC3c2coc3ccccc3c2=O)cc1OC` (stereo not drawn) the value was “inactive”; for `COc1ccc(OC)c2sc(NC(=O)c3ccc(Br)s3)nc12`, “inactive”; for `COc1ccc(C(=O)/C=C/c2cc(OC)c(O)c(OC)c2)c(F)c1`, “inactive”. For `O=C(N/N=C/c1ccc(O)c(O)c1O)/C(=C/c1ccc([N+](=O)[O-])cc1)NC(=O)c1ccccc1`, the percent span inhibition result is “inactive”. The same measure, in the same setting: for `O=C(CSc1nnc(Cc2ccccc2)o1)NCc1ccco1` the value was “inactive”; for `O=C(O)c1cccc(NC2=C(Cl)C(=O)c3ccccc3C2=O)c1`, “inactive”; for `CN(C)c1ccc(C=C2C(=O)NC(=O)NC2=O)cc1[N+](=O)[O-]`, “inactive”.

With `CN(C)C(Cc1ccccc1)C(=O)c1cccs1` (stereo not drawn), the percent span inhibition entry is “inactive”. Same read-out and setting: for `Cc1cc(NC(=O)CCCC(=O)NCc2ccccc2)no1` the value was “inactive”; for `CCN1CCN(c2ccc(NC(=O)c3cccc4ncccc34)cc2)CC1`, “inactive”; for `Cc1ccccc1/C=N/Nc1ccnc2cc(Cl)ccc12`, “inactive”. With `N/C(=N\N=C/c1ccc(Br)cc1)N/N=C\c1ccc(Br)cc1`, the percent span inhibition result is “inactive”.

Take `O=C(OCC(=O)c1ccc[nH]1)c1ccccc1`: the percent span inhibition entry was “inactive”. Regarding `Cc1ccc2c(c1)C1CN(C)CCC1N2C(=O)Nc1cccc(Cl)c1` (stereo not drawn), the percent span inhibition result was “inactive”.

Regarding `CCOc1cccc(CNc2ccc(O)cc2)c1OCc1ccc(Cl)cc1`, the percent span inhibition entry is “inactive”. The same measure, in the same setting: the value for `CC(C)C(=O)N1CCN(c2ccc([N+](=O)[O-])cc2Cl)CC1` was “inactive”; that for `Cc1[nH]n(C(N)=S)c(=O)c1N=Nc1ccc(S(=O)(=O)N2CCCCCC2)cc1` was “inactive”; that for `CCOc1cc(S(=O)(=O)Nc2ccccn2)ccc1F` was “inactive”. For the compound `CC(C)(C)C1CCC(=NNC(=O)c2cc3c(s2)CCCC3)CC1` (stereo not drawn), the percent span inhibition result was “inactive”. On the same count and under the same terms, the value for `COc1cc(C2Nc3cccc4cccc(c34)N2)cc(OC)c1O` was “inactive”; that for `COc1cccc(/C=C2/SC(=O)N(C)C2=O)c1OCc1ccc(C(=O)O)cc1` was “inactive”.

Take `c1ccc(Nc2cccc(Nc3ccccc3)n2)cc1`: the EC50 entry was “inactive”.

As to `O=C(CSc1nnc(-c2ccccc2)c(-c2ccccc2)n1)N1CCc2ccccc21`, the percent span inhibition entry was “inactive”. Same read-out and setting: the value for `COc1ccc(Cl)cc1-n1c(C)cc(C=O)c1C` was “inactive”; that for `CC(C)CN1C(=O)/C(=C/c2ccco2)NC1=S` was “inactive”. Still for that read-out and setting: the value for `O=c1[nH]c(SCc2nc3ccccc3c(=O)n2-c2ccccc2C(F)(F)F)nc2ccccc12` was “inactive”. On the same count and under the same terms, the value for `Cc1c(N2C(=O)c3ccc4c5c(ccc(c35)C2=O)CC4)c(=O)n(-c2ccccc2)n1C` was “inactive”; that for `CCN1CCN(c2cc(C)c3cc(NC(=S)N4CC(C)CC(C)C4)ccc3n2)CC1` (stereo not drawn) was “inactive”. For `Cc1ccc(NC(=O)CSc2nc3ccccc3c(=O)n2CCCN2CCCCC2)cc1Cl`, the percent span inhibition entry was “inactive”. On the same count and under the same terms, the value for `CN1C(=O)/C(=C/c2ccc(-c3ccccc3[N+](=O)[O-])o2)SC1=Nc1ccc(Cl)c(C(=O)O)c1` was “inactive”; that for `COC(=O)c1ccc(-n2nnnc2SCC(=O)Nc2cc(OC)ccc2OC)cc1` was “inactive”.

In the case of `CCc1ccc(/C=C/C(=O)c2cc(Br)ccc(=O)c2O)cc1`, the percent span inhibition entry is “inactive”. `COc1cc(/C=C2/NC(=O)N(Cc3ccccc3F)C2=O)cc(OC)c1O`: the percent span inhibition result was “inactive”. Take `CCCn1c(SCC(=O)Nc2ccccc2-c2ccccc2)nnc1-c1ccoc1C`: the percent span inhibition result was “inactive”. On to `O=C(C1=NN[C@@H]2C(=O)N(c3cccc(F)c3)C(=O)[C@H]12)c1ccc2ccccc2n1`, for which the percent span inhibition entry is “inactive”.

Regarding `Cc1ccc(/C=N/NC(=O)CSc2nnc(-c3ccc(Cl)cc3)n2-c2ccccc2)o1`, the percent span inhibition entry is “inactive”. Same read-out and setting: for `COc1ccc(N2C(=O)/C(=C/c3cccs3)NC2=S)cc1` the value was “inactive”; for `COc1cc(/C=C2\CC/C(=C\c3cc(OC)c(O)c(OC)c3)C2=O)cc(OC)c1O`, “inactive”; for `CCN1C(=O)/C(=C/C=C2\C=CN(CC)c3ccccc32)SC1=S`, “inactive”. Take `CC(C)c1ccc(C2CC(c3ccc(Br)cc3)=NN2C(N)=S)cc1` (stereo not drawn): the percent span inhibition entry was “inactive”. As for `CCc1nn2cc(C(=O)c3cc(C)ccc3O)cnc2c1-c1ccc(F)cc1`, the percent span inhibition result is “inactive”.

On to `COc1ccc(C2(NC(C)=O)CCN(C(=O)c3ccco3)CC2)cc1`, for which the percent span inhibition result was “inactive”. As to `CCc1nnc(NS(=O)(=O)c2ccc(N=CC3=C(O)CC(C)(C)CC3=O)cc2)s1`, the percent span inhibition result was “inactive”. Still for that read-out and setting: the value for `O=C(Nc1ccc(N2CCOCC2)cc1)Nc1ccc2nc(-c3ccco3)c(-c3ccco3)nc2c1` was “inactive”; that for `O=C(Nc1ccccc1N1CCOCC1)c1cccs1` was “inactive”. On to `CCOC(=O)c1c2c3c(cccc3[nH]c1=O)C(=O)c1ccccc1-2`, for which the EC50 entry was “inactive”. On to `Cc1ccc(C2=N/C(=C/c3cccs3)C(=O)N2Nc2ccccc2)cc1`, for which the percent span inhibition entry was “inactive”. Same read-out and setting: for `COc1ccccc1Oc1ccc2c(c1)C(=O)N(c1ccccc1)C2=O` the value was “inactive”; for `Cc1ccc(C(=O)NNC(=O)c2ccc3ncccc3c2)cc1`, “inactive”. On the same count and under the same terms, for `Cc1ccc2nc3c(cc(C(N)=S)c(=N)n3CCCOC(C)C)c(=O)n2c1` the value was “inactive”. Still for that read-out and setting: the value for `C1=CC2c3ccccc3NC(c3ccncc3)C2C1` (stereo not drawn) was “inactive”. `Cc1ccnc(SCc2cc(=O)c(OC(=O)c3ccc(Cl)c([N+](=O)[O-])c3)co2)n1`: the EC50 result is “inactive”. `Cc1ccc(-c2nc3c(c(=O)[nH]c(=O)n3Cc3ccccc3)n2C)o1`: the percent span inhibition result is “inactive”. Take `CCN1CCN(c2cc(C)c3cc(NC(=S)N4CCCCC4)ccc3n2)CC1`: the percent span inhibition result was “inactive”.

For the compound `CN(C)c1ccc(C(=O)/C=C/c2ccc(Br)cc2)cc1`, the percent span inhibition result is “inactive”. Same read-out and setting: the value for `Cc1ccc(-c2ccc(/C=C3\SC(N4CCOCC4)=NC3=O)o2)cc1` was “inactive”; that for `O=C(/C=C/c1ccccc1Cl)c1ccccc(=O)c1O` was “inactive”. The same measure, in the same setting: for `COc1ccc2c3c(cccc13)N(C)N=C2C` the value was “inactive”; for `CC(=O)NC1=C(NC2CCS(=O)(=O)C2)C(=O)c2ccccc2C1=O` (stereo not drawn), “inactive”; for `Cc1cc(-c2csc(N)n2)c(C)n1CCC(C)C`, “inactive”. Still for that read-out and setting: for `Cc1ccc(/C=N/N(C)C2=NS(=O)(=O)c3ccccc32)o1` the value was “inactive”; for `Cc1cccc(Nc2nc(-c3ccncc3)cs2)c1`, “inactive”. With `Cn1c(OCc2cccnc2)nc2c1c(=O)n(Cc1ccccc1)c(=O)n2C`, the percent span inhibition entry was “inactive”. On the same count and under the same terms, the value for `CCCCN(C(=O)CCC(=O)Nc1cc(C)on1)C(C(=O)NC(C)(C)C)c1cccc(OC)c1OC` (stereo not drawn) was “inactive”; that for `CNC(=O)c1sc(-c2ccccn2)nc1C` was “inactive”.
